In patent US20120165325A1, “Stable forms of N-(2,6-Dimethyl-4-morpholin-4-yl-phenyl)-3,3-dimethyl-butyramide” (H. Lundbeck A/S, priority 2009, published 2012):

Legend:
Male Wistar rats = experiment: Conditioned avoidance response; format: in vivo, rat; details: for % inhibition of avoidance (Std. dev.) Relative to baseline: rats
Protocol: Subjects. Male Wistar rats (Taconic, Denmark) weighing 150 g at the beginning of the study were used. The rats were housed in pairs and maintained on a 12 h light/dark cycle (lights on 06:00). The animals were fed once daily (approx. 6 pellets/rat) in order to keep the rats at 80% of their free-feeding weight. Water was available ad libitum. Temperature (21±1° C.) and relative humidity (55±5%) were automatically controlled.
Experimental procedure. Conditioned avoidance testing was conducted using four automated shuttle-boxes (ENV-010M, MED-Associates) each placed in a sound-attenuated chamber. Each box was divided into two compartments by a partition with an opening. The position of the animal and crossings from one compartment to the other were detected by two photocells placed on either side of the dividing wall. Upon presentation of the conditioned stimuli (CS), tone and light, the animals have 10 s to cross to the other compartment of the shuttle-box in order to turn the CS off (end the trial) and avoid the appearance of the unconditioned stimulus (UCS). If the rat remained in the same compartment for more than 10 s, the UCS is presented as 0.5 mA scrambled foot-shocks until escape was performed or 10 s in maximal duration. The following behavioural variables were evaluated: avoidance (response to CS within 10 s); escape (reponse to CS+UCS); escape failures (failure to respond); intertrial crosses and locomotor activity. The rats were habituated to the shuttle-box 3 min before each test session. During training each test session consists of 30 trials with intertrial intervals varying randomly between 20 s and 30 s. Training was carried until the rats display an avoidance of 80% or more, on 3 consecutive days. […]
Statistical analyses. The effects of compounds on avoidance and escape failure behaviours were statistically evaluated by means of a two-way repeated measures ANOVA followed by post hoc comparisons (Student-Newman-Keuls Method) when appropriate. […]

DA neurons in the VTA = experiment: Electrophysiology: spontaneous DA cell firing in the VTA of anaesthetised rats; format: in vivo, rat; details: mean ± SEM
Protocol: Subjects. Male Wistar rats (Harlan, The Netherlands) weighing 270-340 g were used. The animals were housed under a 12-hr light/dark cycle under controlled conditions for regular in-door temperature (21±2° C.) and humidity (55±5%) with food and tap water available ad libitum.
Experimental procedure. The rats were anaesthetised with an intraperitoneal injection of chloral hydrate (400 mg/kg). A femoral vein catheter was then inserted for supplementary anaesthetic injections (100 mg/kg) and drug administration. Animals were then mounted in a stereotaxic frame, the skull was exposed, and a hole (0.5×0.5 cm) was drilled above the ventral tegmental area. Extracellular single-cell recordings were performed using electrodes pulled from glass capillaries and filled with 2% Pontamine Sky Blue in 2 M NaCl. The tip of the electrode was broken under microscopic control, yielding an impedance of 2.0-8.0 MΩ a 135 Hz. The electrode was then lowered into the brain, using a hydraulic microdrive, aimed at the following coordinates: 5.5-5.0 mm posterior to Bregma; 0.5-0.9 mm lateral to the midline. Extracellular action potentials were amplified, discriminated and monitored on an oscilloscope and an audiomonitor. Discriminated spikes were collected and analysed using Spike 2 software (Cambridge Electronic Design Ltd., Cambridge, UK) on a PC-based system connected to a CED 1401 interface unit (Cambridge Electronic Design Ltd.). Presumed dopaminergic neurons were typically found 7.0-8.5 mm beneath the brain surface and were characterised by (1) a slow and irregular firing pattern (0.5-10 Hz), and (2) triphasic action potentials with a predominant positive component, a negative component followed by a minor positive component, with an overall duration >2.5 ms (Bunney et al. 1973, J. Pharmacol. Exp. They., 185, 560-571.).
Administration of compounds. Once a stable basal firing rate was obtained, cumulated doses of N-(2,6-Dimethyl-4-morpholin-4-yl-phenyl)-3,3-dimethyl-butyramide ([…]; volume range 0.12-1.0 ml/kg) were administered i.v., each injection being separated by at least 3 min. These i.v. doses match the s.c. dose range of 0-10 mg/kg.
Statistical analysis. Drug effects were assessed by statistical comparison of the mean firing rate calculated from the 2-3 min period immediately before the first drug administration (baseline) to the mean firing rate calculated from at least 60 s at the maximal drug effect. Data were analysed statistically by a one-way ANOVA followed by Student-Newman-Keuls posthoc test. A p-value less than 0.05 was considered significant.

Male NMRI mice = experiment: Amphetamine sensitisation: inhibition of the sensitised behavioural response to amphetamine; format: in vivo, mouse; details: Mus musculus; amphetamine-pretreated mice; s.c. 30 min before D-amphetamine challenge 1.25 mg/kg s.c.; 30 min test; S.D. in brackets
Protocol: Subjects. […] The animals were housed 6 mice pr cage in a 12-hr light/dark cycle under controlled conditions for regular in-door temperature (21±2° C.) and humidity (55±5%) with food and tap water available ad libitum.
Experimental procedure. […] 5×8 infrared light sources and photocells interspaced by 4 cm monitor the locomotor activity.
Administration of compounds.
Data analyses. […] A therapeutic index value can subsequently be calculated by dividing the first ED50 by the second.

Structure (SMILES): Cc1cc(N2CCOCC2)cc(C)c1NC(=O)CC(C)(C)C [N-(2,6-dimethyl-4-morpholin-4-yl-phenyl)-3,3-dimethyl-butyramide]
- % inhibition of avoidance (Std. dev.) Relative to baseline (Male Wistar rats; 2.5 mg/kg s.c. 30 min before the test): 1 (14) %
- % inhibition of avoidance (Std. dev.) Relative to baseline (Male Wistar rats; 5 mg/kg s.c. 30 min before the test): 71%
- Escape failures (effect on motor performance) (Male Wistar rats; 2.5 and 5 mg/kg s.c., data not shown): None of the tested doses caused any incidences of escape failures
- Spontaneous DA cell firing rate as a percentage of baseline firing rate (DA neurons in the VTA; cumulated dose 0.03 mg/kg i.v.): 89.8 ± 4.5 (5) percentage of baseline firing rate
- Spontaneous DA cell firing rate as a percentage of baseline firing rate (DA neurons in the VTA; cumulated dose 0.1 mg/kg i.v.): 81.0 ± 4.0 (5) percentage of baseline firing rate
- Spontaneous DA cell firing rate as a percentage of baseline firing rate (DA neurons in the VTA; cumulated dose 0.25 mg/kg i.v.): 74.1 ± 6.3 (4) percentage of baseline firing rate
- Spontaneous DA cell firing rate as a percentage of baseline firing rate (DA neurons in the VTA; cumulated dose 0.5 mg/kg i.v.): 68.1 ± 6.0 (4) percentage of baseline firing rate
- Spontaneous DA cell firing rate as a percentage of baseline firing rate (DA neurons in the VTA; cumulated dose 1.0 mg/kg i.v.): 57.1 ± 7.9 (3) percentage of baseline firing rate
- ED50 (Male NMRI mice): 1.6 mg/kg
